From patent US6525001B1, “Substituted pyrimidine and pyridine herbicides” (Mid-American Commercialization Corporation, priority 1997, dated 2003)

What was measured:
Type in all cases: in vivo
Parameters in all cases: key: 0 is no effect; 10 is complete control
[1] = tested on: duck salad (Heteranthera limosa); test: Test B flood test
Method in brief: (§1)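 Flood test on plants grown to the 2-leaf stage; treated plants kept in greenhouse twelve to sixteen days, then visually rated against controls on a 0 (no effect) to 10 (complete control) scale.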

rice (Oryza sativa) = test: Test B flood test
Method in brief: as §1

[2] = tested on: bamyardgrass (Echinochloa crus-galli); test: Test B flood test
Method in brief: as §1

[3] = tested on: smallflower flatsedge (Cyperus difformis); test: Test B flood test
Method in brief: as §1

[4] = tested on: velvetleaf (Abutilon theophrasti); test: Test B pre-/postemergence
Method in brief: (§2)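 Scored visually 0 (none) to 10 (complete control) against untreated plants after twelve to sixteen greenhouse days. Test chemicals, formulated in surfactant-containing non-phytotoxic solvent, applied to soil after planting and, separately, onto 1- to 4-leaf (2–18 cm) plants.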

[5] = tested on: pigweed (Amaranthus retroflexus); test: Test B pre-/postemergence
Method in brief: as §2

wild oat (Avena fatua) = test: Test B pre-/postemergence
Method in brief: as §2

[6] = tested on: wheat (Triticum aestivum); test: Test B pre-/postemergence
Method in brief: as §2

[7] = tested on: purple nutsedge (Cyperus rotundus); test: Test B pre-/postemergence
Method in brief: as §2

[8] = tested on: momingglory (Ipomoea hederacea); test: Test B pre-/postemergence
Method in brief: as §2

[9] = tested on: crabgrass (Digitaria sanguinalis); test: Test B pre-/postemergence; conditions: for Crabgrass plant response rating: Preemergence
Method in brief: as §2

[10] = tested on: blackgrass (Alopecurus myosuroides); test: Test B pre-/postemergence; conditions: for Blackgrass plant response rating: Preemergence
Method in brief: as §2

[11] = tested on: bedstraw (Galium aparine); test: Test B pre-/postemergence; conditions: for Bedstraw plant response rating: Preemergence
Method in brief: as §2

corn (Zea mays) = test: Test B pre-/postemergence; conditions: for Corn plant response rating: Preemergence
Method in brief: as §2

[12] = tested on: sugar beet (Beta vulgaris); test: Test B pre-/postemergence
Method in brief: as §2

rape (Brassica napus) = test: Test B pre-/postemergence
Method in brief: as §2

[13] = tested on: giant foxtail (Setaria faberii); test: Test B pre-/postemergence
Method in brief: as §2

[14] = tested on: cocklebur (Xanthium strumarium); test: Test B pre-/postemergence; conditions: for Cocklebur plant response rating: Preemergence
Method in brief: as §2

[15] = tested on: broadleaf signalgrass (Brachiaria decumbens); test: Test B pre-/postemergence; conditions: for B. signalgrass plant response rating: Preemergence
Method in brief: as §2

soybean (Glycine max) = test: Test B pre-/postemergence
Method in brief: as §2

[16] = Rate 62 g/ha, Postemergence (flood test)
[17] = Rate 125 g/ha, Postemergence, flood test
[18] = Rate 250 g/ha, Postemergence (flood test species)
[19] = Rate 125 g/ha, Postemergence section (flood test species)
[20] = Rate 250 g/ha, Postemergence (so in the source)

Q: What does the source list for `Cc1cnc(-c2ccccc2F)nc1Cc1cccc(C#N)c1` [Compound 37]?
A: Plant response rating, Ducksalad [1, 16]: 0; Plant response rating, Ducksalad [1, 17]: 0; Plant response rating, Ducksalad [1, 18]: 0; Plant response rating, Rice (rice (Oryza sativa); [16]): 0; Rice plant response rating (rice (Oryza sativa); [19]): 0; Plant response rating, Rice (rice (Oryza sativa); [18]): 0; Plant response rating, Barnyardgrass [2, 16]: 0; Plant response rating, Barnyardgrass [2, 17]: 0; Plant response rating, Barnyardgrass [2, 18]: 0; Plant response rating, S. Flatsedge [3, 16]: 0; S. Flatsedge plant response rating [3, 19]: 0; Plant response rating, S. Flatsedge [3, 18]: 0; Plant response rating, Velvetleaf ([4]; Rate 62 g/ha, Postemergence): 0; Velvetleaf plant response rating ([4]; Rate 62 g/ha, Preemergence): 0; Velvetleaf plant response rating ([4]; Rate 125 g/ha, Postemergence): 0; Plant response rating, Velvetleaf ([4]; Rate 125 g/ha, Preemergence): 0; Plant response rating, Velvetleaf ([4]; Rate 250 g/ha, Postemergence): 1; Plant response rating, Velvetleaf [4, 20]: 0; Plant response rating, Redroot pigweed ([5]; Rate 62 g/ha, Postemergence): 1; Redroot pigweed plant response rating ([5]; Rate 62 g/ha, Preemergence): 0; Redroot pigweed plant response rating ([5]; Rate 125 g/ha, Postemergence): 1; Redroot pigweed plant response rating ([5]; Rate 125 g/ha, Preemergence): 0; Plant response rating, Redroot pigweed ([5]; Rate 250 g/ha, Postemergence): 7; Plant response rating, Redroot pigweed [5, 20]: 0; Wild oats plant response rating (wild oat (Avena fatua); Rate 62 g/ha, Postemergence): 0; Wild oats plant response rating (wild oat (Avena fatua); Rate 62 g/ha, Preemergence): 0; Wild oats plant response rating (wild oat (Avena fatua); Rate 125 g/ha, Postemergence): 0; Plant response rating, Wild oats (wild oat (Avena fatua); Rate 125 g/ha, Preemergence): 0; Plant response rating, Wild oats (wild oat (Avena fatua); Rate 250 g/ha, Postemergence): 0; Plant response rating, Wild oats (wild oat (Avena fatua); [20]): 0; Wheat plant response rating ([6]; Rate 62 g/ha, Postemergence): 0; Wheat plant response rating ([6]; Rate 62 g/ha, Preemergence): 0; Wheat plant response rating ([6]; Rate 125 g/ha, Postemergence): 0; Plant response rating, Wheat ([6]; Rate 125 g/ha, Preemergence): 0; Plant response rating, Wheat ([6]; Rate 250 g/ha, Postemergence): 0; Plant response rating, Wheat [6, 20]: 0; Plant response rating, Nutsedge ([7]; Rate 62 g/ha, Postemergence): 0; Nutsedge plant response rating ([7]; Rate 62 g/ha, Preemergence): 0; Nutsedge plant response rating ([7]; Rate 125 g/ha, Postemergence): 0; Nutsedge plant response rating ([7]; Rate 125 g/ha, Preemergence): 0; Plant response rating, Nutsedge ([7]; Rate 250 g/ha, Postemergence): 0; Plant response rating, Nutsedge [7, 20]: 0; Plant response rating, Morningglory ([8]; Rate 62 g/ha, Postemergence): 1; Morningglory plant response rating ([8]; Rate 62 g/ha, Preemergence): 0; Morningglory plant response rating ([8]; Rate 125 g/ha, Postemergence): 1; Morningglory plant response rating ([8]; Rate 125 g/ha, Preemergence): 0; Plant response rating, Morningglory ([8]; Rate 250 g/ha, Postemergence): 1; Plant response rating, Morningglory [8, 20]: 0; Plant response rating, Crabgrass ([9]; Rate 62 g/ha, Postemergence): 0; Crabgrass plant response rating ([9]; Rate 62 g/ha): 0; Plant response rating, Crabgrass ([9]; Rate 125 g/ha, Postemergence): 0; Crabgrass plant response rating ([9]; Rate 125 g/ha): 0; Plant response rating, Crabgrass ([9]; Rate 250 g/ha, Postemergence): 1; Plant response rating, Crabgrass [9, 20]: 0; Plant response rating, Blackgrass ([10]; Rate 62 g/ha, Postemergence): 0; Blackgrass plant response rating ([10]; Rate 62 g/ha): 0; Plant response rating, Blackgrass ([10]; Rate 125 g/ha, Postemergence): 0; Blackgrass plant response rating ([10]; Rate 125 g/ha): 0; Plant response rating, Blackgrass ([10]; Rate 250 g/ha, Postemergence): 0; Plant response rating, Blackgrass [10, 20]: 0; Plant response rating, Bedstraw ([11]; Rate 62 g/ha, Postemergence): 1; Bedstraw plant response rating ([11]; Rate 62 g/ha): 0; Plant response rating, Bedstraw ([11]; Rate 125 g/ha, Postemergence): 1; Bedstraw plant response rating ([11]; Rate 125 g/ha): 0; Plant response rating, Bedstraw [11, 20]: 0; Plant response rating, Corn (corn (Zea mays); Rate 62 g/ha, Postemergence): 1; Corn plant response rating (corn (Zea mays); Rate 62 g/ha): 0; Plant response rating, Corn (corn (Zea mays); Rate 125 g/ha, Postemergence): 1; Corn plant response rating (corn (Zea mays); Rate 125 g/ha): 0; Plant response rating, Corn (corn (Zea mays); Rate 250 g/ha, Postemergence): 1; Plant response rating, Corn (corn (Zea mays); [20]): 0; Plant response rating, Sugarbeets ([12]; Rate 62 g/ha, Postemergence): 1; Sugarbeets plant response rating ([12]; Rate 62 g/ha, Preemergence): 0; Sugarbeets plant response rating ([12]; Rate 125 g/ha, Postemergence): 5; Plant response rating, Sugarbeets ([12]; Rate 125 g/ha, Preemergence): 0; Plant response rating, Sugarbeets ([12]; Rate 250 g/ha, Postemergence): 5; Plant response rating, Sugarbeets [12, 20]: 0; Plant response rating, Rape (rape (Brassica napus); Rate 62 g/ha, Postemergence): 1; Rape plant response rating (rape (Brassica napus); Rate 62 g/ha, Preemergence): 0; Rape plant response rating (rape (Brassica napus); Rate 125 g/ha, Postemergence): 3; Rape plant response rating (rape (Brassica napus); Rate 125 g/ha, Preemergence): 0; Plant response rating, Rape (rape (Brassica napus); Rate 250 g/ha, Postemergence): 4; Plant response rating, Rape (rape (Brassica napus); [20]): 0; Plant response rating, Giant foxtail ([13]; Rate 62 g/ha, Postemergence): 0; Giant foxtail plant response rating ([13]; Rate 62 g/ha, Preemergence): 0; Giant foxtail plant response rating ([13]; Rate 125 g/ha, Postemergence): 0; Giant foxtail plant response rating ([13]; Rate 125 g/ha, Preemergence): 0; Plant response rating, Giant foxtail ([13]; Rate 250 g/ha, Postemergence): 1; Plant response rating, Giant foxtail [13, 20]: 0; Plant response rating, Cocklebur ([14]; Rate 62 g/ha, Postemergence): 1; Cocklebur plant response rating ([14]; Rate 62 g/ha): 0; Plant response rating, Cocklebur ([14]; Rate 125 g/ha, Postemergence): 2; Cocklebur plant response rating ([14]; Rate 125 g/ha): 0; Plant response rating, Cocklebur ([14]; Rate 250 g/ha, Postemergence): 3; Plant response rating, Cocklebur [14, 20]: 0; Plant response rating, B. signalgrass ([15]; Rate 62 g/ha, Postemergence): 0; B. signalgrass plant response rating ([15]; Rate 62 g/ha): 0; Plant response rating, B. signalgrass ([15]; Rate 125 g/ha, Postemergence): 0; B. signalgrass plant response rating ([15]; Rate 125 g/ha): 0; Plant response rating, B. signalgrass ([15]; Rate 250 g/ha, Postemergence): 0; Plant response rating, B. signalgrass ([15]; Rate 250 g/ha, Postemergence as printed in head r139 (second section for compounds 26-50)): 0; Plant response rating, Soybean (soybean (Glycine max); Rate 62 g/ha, Postemergence): 0; Soybean plant response rating (soybean (Glycine max); Rate 62 g/ha, Preemergence): 0; Soybean plant response rating (soybean (Glycine max); Rate 125 g/ha, Postemergence): 0; Plant response rating, Soybean (soybean (Glycine max); Rate 125 g/ha, Preemergence): 0; Plant response rating, Soybean (soybean (Glycine max); Rate 250 g/ha, Postemergence): 0; Plant response rating, Soybean (soybean (Glycine max); [20]): 0
